Test results as given in ChEMBL document CHEMBL1201862, “PubChem BioAssay data set” (2004).
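Cells were grown in 96-well plates and exposed to each compound for 48 hours at five concentrations; endpoints were interpolated linearly between bracketing concentrations, or set to the highest concentration if not reached. GI50 is the concentration that inhibits growth by half.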 Activity calls are given as the source filed them. No stated cut-off is given here; in the data, active = GI50 up to about 1.1 µM and inactive = higher.

Tests used:
Test in all cases: growth of human tumour cells (NCI), 48 h
COLO 205 = system: COLO 205
DU-145 = system: DU-145
HCC 2998 = system: HCC 2998
HCT-116 = system: HCT-116
HL-60 = system: HL-60
HOP-92 = system: HOP-92
Hs-578T = system: Hs-578T
IGROV-1 = system: IGROV-1
LOX IMVI = system: LOX IMVI
Malme-3M = system: Malme-3M
NCI-H522 = system: NCI-H522
PC-3 = system: PC-3
RPMI-8226 = system: RPMI-8226
SK-MEL-28 = system: SK-MEL-28
SK-MEL-5 = system: SK-MEL-5
SK-OV-3 = system: SK-OV-3
SN12C = system: SN12C
T47D = system: T47D
TK-10 = system: TK-10
OVCAR-8 = system: OVCAR-8

Measured: GI50

O=C(/C=C/c1ccc(O)c(O)c1O)OCCc1ccccc1
inactive: COLO 205 27.8 µM | DU-145 > 100 µM | HCC 2998 > 100 µM | HCT-116 13.5 µM | HL-60 22 µM | HOP-92 56.1 µM | Hs-578T > 100 µM | IGROV-1 32.9 µM | LOX IMVI 15.2 µM | Malme-3M > 100 µM | NCI-H522 27.9 µM | PC-3 48.9 µM | RPMI-8226 21.2 µM | SK-MEL-28 > 100 µM | SK-MEL-5 > 100 µM | SK-OV-3 90.8 µM | SN12C 18.4 µM | T47D 82.2 µM | TK-10 83.2 µM

CC(=O)OCC1OC(NC(=S)Nn2c(=O)[nH]c3ccccc3c2=O)C(OC(C)=O)C(OC(C)=O)C1OC(C)=O (stereo not given)
inactive: COLO 205 > 100 µM | DU-145 > 100 µM | HCC 2998 > 100 µM | HCT-116 > 100 µM | HL-60 57.4 µM | HOP-92 > 100 µM | Hs-578T > 100 µM | IGROV-1 > 100 µM | LOX IMVI > 100 µM | Malme-3M > 100 µM | NCI-H522 > 100 µM | OVCAR-8 > 100 µM | PC-3 > 100 µM | RPMI-8226 > 100 µM | SK-MEL-28 > 100 µM | SK-MEL-5 > 100 µM | SK-OV-3 > 100 µM | SN12C > 100 µM | T47D > 100 µM

N#Cc1c(C#N)c(-c2ccco2)n(/N=C/c2ccco2)c1N
inactive: COLO 205 > 100 µM | DU-145 39 µM | HCC 2998 > 100 µM | HCT-116 52.8 µM | HL-60 > 100 µM | HOP-92 11.2 µM | Hs-578T 17.4 µM | IGROV-1 35.6 µM | LOX IMVI 83.4 µM | Malme-3M > 100 µM | NCI-H522 > 100 µM | OVCAR-8 23.3 µM | PC-3 > 100 µM | RPMI-8226 > 100 µM | SK-MEL-5 > 100 µM | SK-OV-3 43.3 µM | SN12C 32.6 µM | T47D 2.93 µM | TK-10 96.6 µM

CCOC(=O)N(C)CCC1CC=CC(=O)C1c1cccc(OC)c1OC (stereo not given)
inactive: COLO 205 4 µM | DU-145 12.1 µM | HCC 2998 13.1 µM | HCT-116 14.4 µM | HL-60 19.4 µM | HOP-92 65.3 µM | Hs-578T 71.4 µM | IGROV-1 36.1 µM | LOX IMVI 38.7 µM | Malme-3M 22.9 µM | NCI-H522 13.6 µM | OVCAR-8 21.3 µM | PC-3 12.2 µM | RPMI-8226 14.2 µM | SK-MEL-5 9.53 µM | SK-OV-3 37.4 µM | SN12C 17.3 µM | T47D 21.4 µM | TK-10 22.5 µM

CCOC(=O)c1cc2cc(C)cc(C(=O)c3ccc([N+](=O)[O-])cc3)c2[nH]1
inactive: COLO 205 > 100 µM | DU-145 > 100 µM | HCC 2998 > 100 µM | HCT-116 > 100 µM | HL-60 > 100 µM | HOP-92 93.8 µM | Hs-578T 41.2 µM | IGROV-1 > 100 µM | LOX IMVI > 100 µM | Malme-3M > 100 µM | NCI-H522 > 100 µM | PC-3 > 100 µM | RPMI-8226 > 100 µM | SK-MEL-28 > 100 µM | SK-MEL-5 > 100 µM | SK-OV-3 > 100 µM | SN12C > 100 µM | T47D > 100 µM | TK-10 > 100 µM
